Source: patent publication US11951171B2, “Polypeptide EXP and its drug delivery system as well as extracellular vesicle extraction” (TIANJIN MEDICAL UNIVERSITY, priority 2019, dated 2024)

Legend:
C2C12 cells = test: Binding stability: intracellular co-localization of peptides with exosomes (confocal microscopy, FRET); assay type: cell-based, murine
Procedure: The intracellular co-localization of CP05 and EXP with exosomes was examined with confocal microscopy at different timepoints. FAM-labeled CP05 and EXP were incubated with DiI-labeled exosomes and then added into C2C12 cells.
The meanings of the signs in the figure are as follows: DAPI means staining result for nuclei by DAPI, Peptide(488,520) refers to the excitation and emission wavelength of FAM-labeled CP05 and EXP; EXO(Dil)(540,620) refers to the excitation and emission wavelength for DiI-labeled exosomes; Merge is the superposition of above three staining results; FRET means fluorescence resonance energy transfer. Optical energy resonance transfer is an energy transfer phenomenon between two fluorescent molecules that are very close to each other. When the emission spectrum of the donor fluorescent molecule overlaps with the absorption spectrum of the acceptor fluorescent molecule, and the distance between two molecules is within the range of 10 nm, a […] energy transfer occurs. In the figure, the FAM-Peptide is the donor fluorescent molecule and DiI-EXO is the acceptor fluorescent molecule. […] EXOCP05 is the staining result of exosomes combined with CP05 sequence which is recorded in the prior art Chinese Patent No. CN201510520565.7, and EXOEXP refers to the staining result of the combination of EXP of the present invention and exosomes. […]

CD63 = target: T1, CD63 (Mus musculus, UniProt P41731); test: EXP target detection by co-immunoprecipitation, silver staining and Western blot; assay type: binding; details: Flag-tagged peptide on anti-flag beads, C2C12 lysate; band about 45 kD and 25 kD
T1 construct: endogenous in cells; host or cells: C2C12 cells (lysate)
T1 sequence (P41731 1-238): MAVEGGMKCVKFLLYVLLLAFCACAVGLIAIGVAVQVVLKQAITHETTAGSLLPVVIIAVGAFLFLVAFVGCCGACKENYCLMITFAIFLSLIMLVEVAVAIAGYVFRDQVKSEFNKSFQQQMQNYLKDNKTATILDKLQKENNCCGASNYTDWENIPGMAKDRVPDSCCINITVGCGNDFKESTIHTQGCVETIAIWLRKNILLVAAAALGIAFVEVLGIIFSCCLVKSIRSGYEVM
Procedure: (§1) (A) Silver staining and Western blot were used to detect the interest proteins band obtained by co-immunoprecipitation. Flag-tagged CP05 or EXP was incubated with anti-flag coated beads, and followed by co-incubation with cell lysates after removing the free peptides which were unconjugated with beads. The specific enriched proteins in the cell protein lysate were fished by using the polypeptide. Then the size distribution of the fishing strip was detected by silver staining, and the expression of different Tetraspanin family proteins in the fishing strip was detected by Western blot. […] (B)Immunoprecipitation was used to catch the target of EXP. The results are the same as above. […]

CD81 = target: T2, CD81 (Mus musculus, UniProt P35762); test: as above; assay type: binding; details: Flag-tagged peptide on anti-flag beads, C2C12 lysate; band about 45 kD and 25 kD
T2 construct: endogenous in cells; host or cells: C2C12 cells (lysate)
T2 sequence (P35762 1-236): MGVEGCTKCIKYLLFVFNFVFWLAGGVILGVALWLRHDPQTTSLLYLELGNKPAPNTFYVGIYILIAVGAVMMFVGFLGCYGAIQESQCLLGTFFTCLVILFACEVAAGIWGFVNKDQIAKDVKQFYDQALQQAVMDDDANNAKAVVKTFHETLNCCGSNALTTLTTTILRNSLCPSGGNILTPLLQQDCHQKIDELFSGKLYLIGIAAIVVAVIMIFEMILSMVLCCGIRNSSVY
Procedure: as §1

[1] = system: MVmyo (microvesicles derived from differentiated muscle cells); test: Binding efficiency of EXP and CP05 to microvesicles (flow cytometer); details: flow cytometer (FIG. 8C)
Text: (A)Western blot is used to identify and compare the expression of biomarker proteins of MV and exosomes. It's shown by the results that Tetraspanin family proteins like CD81, CD9 and CD63 were expressed in MV, but mitochondrial marker protein Cytochrome C was not expressed. (B) particle size distribution of MV from different sources were detected by Nanosight. MVmyot means microvesicles derived from differentiated muscle cells; MVurine means microvesicles derived from urine. (C) Examination of the binding efficiency of EXP and CP05 to MVmyo was detected by flow cytometer. […] (E)Western blot was used to detect the recovery of dystrophin protein expression after MVEXPPMO treatment. […]

Sequence: CRHKMWTVKSRL (EXP)
- co-localization with EXO in cells at 48 hours (C2C12 cells): still detectable
- protein band fished from cell lysate, confirmed by Western blot as CD63 (CD63): distinct protein bands
- protein band fished from cell lysate, confirmed by Western blot as CD81 (CD81): distinct protein bands
- binding efficiency to MVmyot compared with CP05 [1]: significantly higher than that of CP05
